In patent US20130288364A1, “ENGINEERED KINETOCHORES AND USES THEREOF” (Whitehead Institute for Biomedical Research, priority 2010, published 2013):

System: U2OS-LacO cells
Assay: Interaction of LacI foci with spindle microtubules (foci shape)
Type: cell-based, human
Conditions: 2 μM
Source text: We next sought to test the interaction of these foci with spindle microtubules. […] This deformation of the LacI foci could represent microtubules binding the structure to opposite spindle poles. In such a situation, tension across the region would result in a change in the shape of the chromatin. Consistent with microtubule interactions with the foci, the deformed shape of the GFP-CENP-T-ΔC-LacI focus was dependent on microtubules, as nocodazole treatment relaxed this to a circular morphology, with an average length to width ration of 1.15 (FIG. 6B). See also FIG. 8. Deformation of the GFP-CENP-T-ΔC-LacI focus was exacerbated by treatment with the Aurora B inhibitor ZM447439, which has been proposed to regulate both kinetochore-microtubule attachments (Cheeseman and Desai, 2008) and chromatinstructure (Lipp et al., 2007).
Immunofluorescence in human cells was conducted as described previously (Kline et al., 2006). […]

In the case of `COc1cc2c(Nc3ccc(NC(=O)c4ccccc4)cc3)ncnc2cc1OCCCN1CCOCC1` [ZM447439], the “effect on deformation of the GFP-CENP-T-ΔC-LacI focus” value is reported as “exacerbated”.
